Experiments:
[1] = test system: patients with chronic decompensated HF; assay: FUSION I: global clinical status, 7-point ordinal scale; format: in vivo, human; details: for Investigators' assessment: Reported improvement from baseline (%): moderately or markedly improved; for Investigators' assessment: Mean change from baseline / Patients' assessment: Mean change from baseline: scale −3 to +3
Description: At weeks 4, 8, and 12, the change from baseline global clinical status was assessed by both the patient and the investigator; assessments were rated on a 7-point ordinal scale from markedly worse (−3) to markedly better (+3).^1l,12 In addition, patients' assessment of quality of life was measured at baseline and at weeks 4, 8, and 12 using the Minnesota Living With HF questionnaire. (Rector TS, Kubo SH, Cohn J N. Patients' self-assessment of their congestive heart failure. Part 2: Content, reliability and validity of a new measure, The Minnesota Living with Heart Failure Questionnaire. Heart Failure 1987;October/November:198-209.)

[2] = test system: patients with acutely decompensated congestive heart failure; details: in vivo; cited from earlier work
[3] = week 4, both nesiritide groups, count in cell 125
[4] = week 12, 0.01 μg/kg/min, count in cell 51

Nesiritide: a recombinant form of human B-type natriuretic peptide (BNP)
Global clinical status, investigators' assessments, compared with usual-care group ([1]; 0.01-μg/kg/min group, p≦0.004 at all time points): significant improvement | Global clinical status, patients' assessments, among treatment groups ([1]; all treatment groups): no significant differences | Patients' assessment: Reported improvement from baseline (%) ([1]; week 4, 0.005 μg/kg/min, count in cell 62): 62 (50%) | Investigators' assessment: Reported improvement from baseline (%) ([1]; week 4, 0.005 μg/kg/min, count in cell 63): 63 (29%) | Investigators' assessment: Mean change from baseline ([1]; week 4, 0.005 μg/kg/min): 0.9 ± 1.28 | Patients' assessment: Mean change from baseline ([1]; week 4, 0.005 μg/kg/min): 1.3 ± 1.33 | Patients' assessment: Reported improvement from baseline (%) ([1]; week 4, 0.01 μg/kg/min, count in cell 63): 63 (51%) | Investigators' assessment: Reported improvement from baseline (%) ([1]; week 4, 0.01 μg/kg/min, count in cell 62): 62 (47%) | Patients' assessment: Mean change from baseline ([1]; week 4, 0.01 μg/kg/min): 1.4 ± 1.20 | Investigators' assessment: Mean change from baseline ([1]; week 4, 0.01 μg/kg/min, p < 0.05 compared with usual care): 1.1 ± 1.28 | Patients' assessment: Reported improvement from baseline (%) [1, 3]: 125 (50%) | Investigators' assessment: Reported improvement from baseline (%) [1, 3]: 125 (38%) | Patients' assessment: Mean change from baseline ([1]; week 4, both nesiritide groups): 1.4 ± 1.26 | Investigators' assessment: Mean change from baseline ([1]; week 4, both nesiritide groups, p < 0.05 compared with usual care): 1.0 ± 1.28 | Patients' assessment: Reported improvement from baseline (%) ([1]; week 8, 0.005 μg/kg/min, count in cell 53): 53 (72%) | Investigators' assessment: Reported improvement from baseline (%) ([1]; week 8, 0.005 μg/kg/min, count in cell 50): 50 (54%) | Patients' assessment: Mean change from baseline ([1]; week 8, 0.005 μg/kg/min): 1.7 ± 1.26 | Investigators' assessment: Mean change from baseline ([1]; week 8, 0.005 μg/kg/min, p < 0.05 compared with usual care): 1.3 ± 1.35 | Patients' assessment: Reported improvement from baseline (%) ([1]; week 8, 0.01 μg/kg/min, count in cell 56): 56 (68%) | Investigators' assessment: Reported improvement from baseline (%) ([1]; week 8, 0.01 μg/kg/min, count in cell 54): 54 (59%) | Patients' assessment: Mean change from baseline ([1]; week 8, 0.01 μg/kg/min): 1.8 ± 1.26 | Investigators' assessment: Mean change from baseline ([1]; week 8, 0.01 μg/kg/min, p < 0.05 compared with usual care): 1.6 ± 1.19 | Patients' assessment: Reported improvement from baseline (%) ([1]; week 8, both nesiritide groups, count in cell 109): 109 (70%) | Investigators' assessment: Reported improvement from baseline (%) ([1]; week 8, both nesiritide groups, count in cell 104): 104 (57%) | Patients' assessment: Mean change from baseline ([1]; week 8, both nesiritide groups): 1.8 ± 1.25 | Investigators' assessment: Mean change from baseline ([1]; week 8, both nesiritide groups, p < 0.05 compared with usual care): 1.4 ± 1.27 | Patients' assessment: Reported improvement from baseline (%) ([1]; week 12, 0.005 μg/kg/min, count in cell 54): 54 (76%) | Investigators' assessment: Reported improvement from baseline (%) ([1]; week 12, 0.005 μg/kg/min, count in cell 51): 51 (55%) | Patients' assessment: Mean change from baseline ([1]; week 12, 0.005 μg/kg/min): 1.9 ± 1.39 | Investigators' assessment: Mean change from baseline ([1]; week 12, 0.005 μg/kg/min, p < 0.05 compared with usual care): 1.4 ± 1.31 | Patients' assessment: Reported improvement from baseline (%) [1, 4]: 51 (55%) | Investigators' assessment: Reported improvement from baseline (%) [1, 4]: 51 (59%) | Patients' assessment: Mean change from baseline ([1]; week 12, 0.01 μg/kg/min): 1.7 ± 1.09 | Investigators' assessment: Mean change from baseline ([1]; week 12, 0.01 μg/kg/min, p < 0.05 compared with usual care): 1.7 ± 1.16 | Patients' assessment: Reported improvement from baseline (%) ([1]; week 12, both nesiritide groups, count in cell 105): 105 (66%) | Investigators' assessment: Reported improvement from baseline (%) ([1]; week 12, both nesiritide groups, count in cell 102): 102 (57%) | Patients' assessment: Mean change from baseline ([1]; week 12, both nesiritide groups): 1.8 ± 1.25 | Investigators' assessment: Mean change from baseline ([1]; week 12, both nesiritide groups, p < 0.05 compared with usual care): 1.5 ± 1.24 | Ventricular rhythm disturbances [2]: did not engender ventricular rhythm disturbances

Source: patent publication US20050113286A1, “Methods for treating congestive heart failure” (priority 2002, published 2005)
